The source of these data is patent US10202353B2, “Therapeutic compounds” (Gilead Sciences, Inc., priority 2014, dated 2019).

One data set deals with HIV-IIIb. The data set is described as follows: Test A: Antiviral assay in MT4 Cells. The conditions noted are these: Human immunodeficiency virus 1, 120 h; 2 μM drug concentration; MT4 cells infected with HIV-IIIb, 5 days; calculated from dose response curve; values normalized to 100% where greater than 100; read-out: % Inhibition at 2 μM (percent inhibition of virus-induced cell killing). It counts as cell-based, HIV-1. On the procedure: (§1) For the antiviral assay, 40 μL of a concentration required to achieve a final effective 1× test concentration of 3-fold serially diluted compound in culture medium with 10% FBS was added to each well of a 384-well plate (10 concentrations) in quadruplicate. MT4 cells were next mixed with HIV-IIIb at an m.o.i of 0.003 for 1 hour, after which time 35 μL of virus/cell mixture (2000 cells) was immediately added to each well containing 40 μL of diluted compound. The plates were then incubated at 37° C. for 5 days. After 5 days of incubation, 25 μl of 2× concentrated CellTiter-Glo™ Reagent (catalog # G7571, Promega Biosciences, Inc., Madison, Wis.) was added to each well containing MT-4 cells. Cell lysis was carried out by incubating at room temperature for 10 min and then chemiluminescence was read. EC50 values were calculated as the compound concentration that caused a 50% decrease in luminescence signal, a measure of HIV-1 replication. Percent inhibition of virus-induced cell killing calculated from the dose response curve at 2 μM drug concentration is shown in the table below.

Data set [1] can be described thus: Test B: Cytotoxicity Assay. Format: cell-based. The following applies: human, uninfected MT4 cells, same protocol as Test A. On the procedure:
as §1, with “below. Compound cytotoxicity and the corresponding CC50 values was determined using the same protocol as described in the antiviral assay (Test A) except that uninfected cells were used.” for “below.”

By inhibition is commonly meant the drop in the measured response relative to a control, in per cent. One may read the CC50 as the concentration at which the toxic effect on the cells reaches its halfway point. Low values mean harm at low concentration, high ones better tolerance by the cells. For `CN(C(=O)[C@H](Cc1ccccc1)NC(=O)Cn1nc(C(F)(F)F)c2c1CCCC2)c1ccccc1` [Compound 1, (S)—N-methyl-N,3-diphenyl-2-(2-(3-(trifluoromethyl)-4,5,6,7-tetrahydro-1H-indazol-1-yl)acetamido)propanamide], the inhibition at 2 µM in the data set on HIV-IIIb is 98%. For the same molecule, half-maximal cytotoxicity in data set [1] (CC50 at 5 days) was put at 23.5 µM.

For the molecule `COc1ccc(N(C)C(=O)[C@H](Cc2ccccc2)NC(=O)Cn2nc(C(F)(F)F)c3c2CCCC3)cc1` [Compound 2], in the data set on HIV-IIIb, the inhibition at 2 µM is 100%. In data set [1], the cytotoxic concentration (CC50) at 5 days was determined as 18.4 µM.

In the case of `CN(C(=O)[C@H](Cc1ccccc1)NC(=O)Cn1nc(C(F)(F)F)c2c1CCCC2)c1ccc2ccccc2c1` [Compound 3, (S)—N-methyl-N-(naphthalen-2-yl)-3-phenyl-2-(2-(3-(trifluoromethyl)-4,5,6,7-tetrahydro-1H-indazol-1-yl)acetamido)propanamide], the inhibition at 2 µM in the data set on HIV-IIIb was 79%. Half-maximal cytotoxicity in data set [1] (CC50 at 5 days) was put at 11.1 µM.

In the case of `COc1ccc(N(C)C(=O)[C@H](Cc2cc(F)cc(F)c2)NC(=O)Cn2nc(C(F)(F)F)c3c2CCCC3)cc1` [Compound 4, (S)-3-(3,5-difluorophenyl)-N-(4-methoxyphenyl)-N-methyl-2-(2-(3-(trifluoromethyl)-4,5,6,7-tetrahydro-1H-indazol-1-yl)acetamido)propanamide], in the data set with HIV-IIIb, the inhibition at 2 µM is 100%. The molecule also registered a CC50 at 5 days in data set [1] of 12.5 µM.

For `CN(C(=O)[C@H](Cc1ccncc1)NC(=O)Cn1nc(C(F)(F)F)c2c1CCCC2)c1ccccc1` [Compound 5], the inhibition at 2 µM in the data set with HIV-IIIb was 0%. This molecule also came in with a CC50 at 5 days in data set [1] greater than 53 µM.

With `CN(C(=O)[C@H](Cc1cccnc1)NC(=O)Cn1nc(C(F)(F)F)c2c1CCCC2)c1ccccc1` [Compound 6], the inhibition at 2 µM with HIV-IIIb is 52%. In addition, the CC50 at 5 days in data set [1] was greater than 53 µM.

Take `CN(C(=O)[C@H](Cc1ccccn1)NC(=O)Cn1nc(C(F)(F)F)c2c1CCCC2)c1ccccc1` [Compound 7]: the inhibition at 2 µM with HIV-IIIb is 1%. The molecule also had a CC50 at 5 days in data set [1] greater than 53 µM.

Take `CN(C(=O)[C@H](Cc1cccs1)NC(=O)Cn1nc(C(F)(F)F)c2c1CCCC2)c1ccccc1` [Compound 8]: in the data set on HIV-IIIb, the inhibition at 2 µM was 95%. In data set [1], this molecule came in with a CC50 at 5 days of 25.6 µM.

Turning to `CN(C(=O)[C@H](Cc1cncn1C)NC(=O)Cn1nc(C(F)(F)F)c2c1CCCC2)c1ccccc1` [Compound 9], the inhibition at 2 µM with HIV-IIIb was 5%. This molecule also showed a CC50 at 5 days in data set [1] greater than 53 µM.

`CN(C(=O)[C@H](Cc1csc2ccccc12)NC(=O)Cn1nc(C(F)(F)F)c2c1CCCC2)c1ccccc1` [Compound 10, (S)-3-(benzo[b]thiophen-3-yl)-N-methyl-N-phenyl-2-(2-(3-(trifluoromethyl)-4,5,6,7-tetrahydro-1H-indazol-1-yl)acetamido)propanamide]: the inhibition at 2 µM with HIV-IIIb was 2%. Further, in data set [1], it took 10.5 µM to reach half-maximal cytotoxicity (CC50 at 5 days).

On to `CN(C(=O)[C@H](Cc1cscn1)NC(=O)Cn1nc(C(F)(F)F)c2c1CCCC2)c1ccccc1` [Compound 11, (S)—N-methyl-N-phenyl-3-(thiazol-4-yl)-2-(2-(3-(trifluoromethyl)-4,5,6,7-tetrahydro-1H-indazol-1-yl)acetamido)propanamide], for which the inhibition at 2 µM in the data set on HIV-IIIb was 21%. This molecule also came in with a CC50 at 5 days in data set [1] greater than 53 µM.

In the case of `CN(C(=O)[C@H](Cn1cccn1)NC(=O)Cn1nc(C(F)(F)F)c2c1CCCC2)c1ccccc1` [Compound 12, (S)—N-methyl-N-phenyl-3-(1H-pyrazol-1-yl)-2-(2-(3-(trifluoromethyl)-4,5,6,7-tetrahydro-1H-indazol-1-yl)acetamido)propanamide], in the data set with HIV-IIIb, the inhibition at 2 µM is 10%. The molecule also registered a CC50 at 5 days in data set [1] greater than 53 µM.

Turning to `CN(C(=O)[C@H](Cc1ccccc1)NC(=O)Cn1nc(C(F)(F)F)c2c1CCCCC2)c1ccccc1` [Compound 13], the inhibition at 2 µM in the data set with HIV-IIIb was 87%. In data set [1], this molecule had a CC50 at 5 days of 22.2 µM.

Take `CN(C(=O)[C@H](CC1CCC1)NC(=O)Cn1nc(C(F)(F)F)c2c1CCCC2)c1ccccc1` [Compound 14]: the inhibition at 2 µM with HIV-IIIb was 16%. In data set [1], the CC50 at 5 days came to 29 µM.

Consider `CN(C(=O)[C@H](Cc1cccc(C#N)c1)NC(=O)Cn1nc(C(F)(F)F)c2c1CCCC2)c1ccccc1` [Compound 15, (S)-3-(3-cyanophenyl)-N-methyl-N-phenyl-2-(2-(3-(trifluoromethyl)-4,5,6,7-tetrahydro-1H-indazol-1-yl)acetamido)propanamide], for which, in the data set with HIV-IIIb, the inhibition at 2 µM was 26%. In addition, the half-maximal cytotoxic concentration (CC50) at 5 days in data set [1] was 26.3 µM.

For `CN(C(=O)[C@H](Cc1cccc(Cl)c1)NC(=O)Cn1nc(C(F)(F)F)c2c1CCCC2)c1ccccc1` [Compound 16, (S)-3-(3-chlorophenyl)-N-methyl-N-phenyl-2-(2-(3-(trifluoromethyl)-4,5,6,7-tetrahydro-1H-indazol-1-yl)acetamido)propanamide], in the data set with HIV-IIIb, the inhibition at 2 µM was 58%. This molecule yielded a 50% cytotoxic concentration (CC50) at 5 days in data set [1] of 16.7 µM.

Turning to `CN(C(=O)[C@H](Cc1cccc([N+](=O)[O-])c1)NC(=O)Cn1nc(C(F)(F)F)c2c1CCCC2)c1ccccc1` [Compound 17, (S)—N-methyl-3-(3-nitrophenyl)-N-phenyl-2-(2-(3-(trifluoromethyl)-4,5,6,7-tetrahydro-1H-indazol-1-yl)acetamido)propanamide], in the data set on HIV-IIIb, the inhibition at 2 µM was 0%. In data set [1], it took 19.2 µM to reach half-maximal cytotoxicity (CC50 at 5 days).

For the molecule `CN(C(=O)[C@H](Cc1cccc(C(N)=O)c1)NC(=O)Cn1nc(C(F)(F)F)c2c1CCCC2)c1ccccc1` [Compound 18, (S)-3-(3-(methyl(phenyl)amino)-3-oxo-2-(2-(3-(trifluoromethyl)-4,5,6,7-tetrahydro-1H-indazol-1-yl)acetamido)propyl)benzamide], the inhibition at 2 µM in the data set with HIV-IIIb was 0%. Further, the CC50 at 5 days in data set [1] was greater than 53 µM.

Regarding `CN(C(=O)[C@H](Cc1cccc(Br)c1)NC(=O)Cn1nc(C(F)(F)F)c2c1CCCC2)c1ccccc1` [Compound 19, (S)-3-(3-bromophenyl)-N-methyl-N-phenyl-2-(2-(3-(trifluoromethyl)-4,5,6,7-tetrahydro-1H-indazol-1-yl)acetamido)propanamide], the inhibition at 2 µM with HIV-IIIb is 27%. The CC50 at 5 days in data set [1] was determined as 17.3 µM.

Regarding `CN(C(=O)[C@H](CC1CCOCC1)NC(=O)Cn1nc(C(F)(F)F)c2c1CCCC2)c1ccccc1` [Compound 20, (S)—N-methyl-N-phenyl-3-(tetrahydro-2H-pyran-4-yl)-2-(2-(3-(trifluoromethyl)-4,5,6,7-tetrahydro-1H-indazol-1-yl)acetamido)propanamdide], in the data set with HIV-IIIb, the inhibition at 2 µM is 0%. Besides, the CC50 at 5 days in data set [1] is greater than 53 µM.

For the molecule `CN(C(=O)[C@H](Cc1cccc(C(F)(F)F)c1)NC(=O)Cn1nc(C(F)(F)F)c2c1CCCC2)c1ccccc1` [Compound 21, (S)—N-methyl-N-phenyl-2-(2-(3-(trifluoromethyl)-4,5,6,7-tetrahydro-1H-indazol-1-yl)acetamido)-3-(3-(trifluoromethyl)phenyl)propanamide], the inhibition at 2 µM in the data set on HIV-IIIb was 0%. Besides, the 50% cytotoxic concentration (CC50) at 5 days in data set [1] amounted to 11.3 µM.

For `CN(C(=O)[C@H](Cc1ccsc1)NC(=O)Cn1nc(C(F)(F)F)c2c1CCCC2)c1ccccc1` [Compound 22, (S)—N-methyl-N-phenyl-3-(thiophen-3-yl)-2-(2-(3-(trifluoromethyl)-4,5,6,7-tetrahydro-1H-indazol-1-yl)acetamido)propanamide], the inhibition at 2 µM with HIV-IIIb is 94%. The molecule also had a CC50 at 5 days in data set [1] of 25 µM.

`CN(C)c1ccc(N(C)C(=O)[C@H](Cc2ccccc2)NC(=O)Cn2nc(C(F)(F)F)c3c2CCCC3)cc1` [Compound 23, (S)—N-(4-(dimethylamino)phenyl)-N-methyl-3-phenyl-2-(2(3-(trifluoromethyl)-4,5,6,7-tetrahydro-1H-indazol-1-yl)acetamido)propanamide]: the inhibition at 2 µM in the data set with HIV-IIIb is 100%. Also, the midpoint of cytotoxicity in data set [1], the CC50 at 5 days, lay at 19.2 µM.

Turning to `CN(C(=O)[C@H](Cc1cc(F)cc(F)c1)NC(=O)Cn1nc(C(F)(F)F)c2c1CCCC2)c1ccc(F)cc1` [Compound 24, (S)-3-(3,5-difluorophenyl)-N-(4-fluorophenyl)-N-methyl-2-(2-(3-(trifluoromethyl)-4,5,6,7-tetrahydro-1H-indazol-1-yl)acetamido)propanamide], the inhibition at 2 µM with HIV-IIIb was 93%. In data set [1], this molecule had a CC50 at 5 days of 12.2 µM.

For `COc1ccc(N(C)C(=O)[C@H](Cc2cc(F)cc(F)c2)NC(=O)Cn2nc(C(F)(F)F)c3c2CC(C)CC3)cc1` (stereo partly drawn) [Compound 25, (2S)-3-(3,5-difluorophenyl)-N-(4-methoxyphenyl)-N-methyl-2-(2-(6-methyl-3-(trifluoromethyl)-4,5,6,7-tetrahydro-1H-indazol-1-yl)acetamido)propanamide], the inhibition at 2 µM in the data set with HIV-IIIb was 100%. For the same molecule, in data set [1], the CC50 at 5 days turned out to be 11.1 µM.
